What was measured:
HS-Sch-2 [1] = test: drug sensitivity score (DSS, CellTiter-Glo viability, 72 h) (DSS (dimensionless)); higher = more sensitive; extreme values may be limits of the assay
How it was run: (§1)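 MPNST cell lines and primary human Schwann cells were seeded at 750–1000 cells per well into 384-well plates preprinted with each compound at five concentrations in 10-fold steps, then incubated 72 h at 37 °C, 5% CO2. CellTiter-Glo ATP luminescence gave viability, scaled between vehicle and positive-control wells, with duplicates averaged where present. Curves were fitted with a four-parameter logistic model. Percent inhibition refers to the top concentration, while drug sensitivity score and relative IC50, censored at the top concentration, come from these fits.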

HS-PSS [2] = test: as above
How it was run: as §1

YST-1 [3] = test: as above
How it was run: as §1

HS-PSS [4] = test: drug sensitivity score (DSS, CellTox-Green cytotoxicity, 72 h) (DSS (dimensionless)); higher = more cytotoxic; extreme values may be limits of the assay
How it was run: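 For 72 h at 37 °C, MPNST cell lines and primary human Schwann cells were exposed in 384-well plates to five 10-fold compound dilutions. CellTox-Green, added before seeding at a final 1:1000 dilution, gave fluorescence from DNA released by disrupted cells. Signals were scaled to vehicle and positive-control wells, cultures failing plate quality control were left out, and four-parameter logistic fits were applied. Relative IC50 and drug sensitivity score were derived from the fits, with IC50 censored at the top concentration.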

HS-Sch-2 [5] = test: % inhibition of CellTiter-Glo viability at highest tested concentration (72 h), relative to DMSO and benzethonium chloride controls; higher = more inhibition
How it was run: as §1

HS-PSS [6] = test: as above
How it was run: as §1

YST-1 [7] = test: as above
How it was run: as §1

Structure (SMILES)	drug sensitivity score (HS-Sch-2 [1])	drug sensitivity score (HS-PSS [2])	drug sensitivity score (YST-1 [3])	drug sensitivity score (HS-PSS [4])	% inhibition (HS-Sch-2 [5]) [%]	% inhibition (HS-PSS [6]) [%]	% inhibition (YST-1 [7]) [%]
Cc1cc(Nc2cc(N3CCN(C)CC3)nc(/C=C/c3ccccc3)n2)n[nH]1 [ENMD-2076] (max concentration tested 10000 nM)	12.1	8.13	10.8	1.84	95.5	70.5	63.9
CCCCc1nc2cc(/C=C/C(=O)NO)ccc2n1CCN(CC)CC [Pracinostat] (max concentration tested 10000 nM)	15.9	12.4	22	6.63	101	94	100
CN(C)C(=N)NC(=N)N [Metformin] (max concentration tested 100000 nM)	0	0.59	0	0	7.35	19.4	-0.71
Nc1ncnc2c1c(-c1cccc(OCc3ccccc3)c1)cn2[C@H]1C[C@@H](CN2CCC2)C1 [NVP-AEW541] (max concentration tested 10000 nM)	8.08	5.83	13	7.08	99.8	100	98.3
FC(F)(F)c1ccc(CNc2ccc(Cc3c[nH]c4ncc(Cl)cc34)cn2)cn1 [Pexidartinib] (max concentration tested 10000 nM)	0.57	1.79	0.84	0	18.9	25.9	17.3
COc1cc(Br)c(Nc2nc(-c3c(C)nc4ncccn34)cs2)c(Br)c1 [PTC-209] (max concentration tested 10000 nM)	7.96	7.63	6.29	0	81	84.8	94.4
Cn1cc(C2=Nc3cc(NC(=O)C(N)C4CCCCC4)cc4c3C2=CNNC4=O)cn1 (stereo not given) (max concentration tested 10000 nM)	22.7	8.91	14.8	0	84.3	43.5	51.3
C1=N/C2=N/c3ccc(OCCN4CCCC4)c(c3)COC/C=C/COCc3cccc(c3)C(=C1)N2 [Pacritinib] (max concentration tested 10000 nM)	8.63	10.8	8.15	4.15	99.6	99.4	100
Cc1cc(C)c(/C=C2\C(=O)Nc3ccccc32)[nH]1 [Semaxanib] (max concentration tested 10000 nM)	0	0	2.84	4.89	-7.06	0.19	14.4
Cc1cc(-c2ncc(-c3cccnc3)cc2/C=C/c2ccccc2)cnc1-c1cccnc1 [Pyridoclax] (max concentration tested 25000 nM)	1.52	0.36	16.5	0	19.9	9.44	62.7
S=C(NCc1ccc2c(c1)OCO2)N1CCN(c2ncnc3c2oc2ccccc23)CC1 [Amuvatinib] (max concentration tested 10000 nM)	6.77	9.62	1.22	0	86.5	83.6	31.3
C=CC(=O)Nc1cccc(Nc2nc(Nc3ccc(N4CCN(C(C)=O)CC4)cc3OC)ncc2C(F)(F)F)c1 [Rociletinib] (max concentration tested 10000 nM)	4.99	4.91	8.73	3.25	80.9	86.4	95.2
CC(C)[C@H]1C(=O)N[C@@H](CCCNC(=N)N)C(=O)NCC(=O)N[C@@H](CC(=O)O)C(=O)N[C@H](Cc2ccccc2)C(=O)N1C [Cilengitide] (max concentration tested 10000 nM)	1.06	0	0	0	27	1.31	-3.66
CCn1c(=O)c(-c2cc[nH]n2)cc2c(C)nc(N)nc21 [Voxtalisib] (max concentration tested 10000 nM)	4.83	3.33	9.29	0	64.5	48.4	86.5
CN1CC[C@@H](NC(=O)Nc2ccc(C#N)cc2)C[C@@H]1c1nc2ccccc2[nH]1 [Glasdegib] (max concentration tested 1000 nM)	1.4	2.26	0	0	20.6	21.2	1.47
CC(C)c1cc(C(=O)N2Cc3ccc(CN4CCN(C)CC4)cc3C2)c(O)cc1O [Onalespib] (max concentration tested 2500 nM)	21.4	13.2	12.6	6.31	101	81.9	75.8
COc1c(OCCCN2CCOCC2)ccc2c1N=C(NC(=O)c1cnc(N)nc1)N1CCN=C21 [Copanlisib] (max concentration tested 1000 nM)	7.87	1.69	17.5	0	70.5	44	92.5
CS(=O)(=O)c1ccc(-c2cnc(N)c(C(=O)Nc3ccccc3)n2)cc1 [VE-821] (max concentration tested 10000 nM)	0	0.05	0	0	5.62	10.4	7.49
CNc1ncc2cc(-c3cc(NC(=O)NCCC(C)(C)C)c(F)cc3C)c(C)nc2n1 (max concentration tested 10000 nM)	10.8	3.13	6.37	0.82	55.9	69.1	46.5
CCn1c(=O)c(-c2ccc(Cl)cc2Cl)cc2cnc(Nc3ccc(N4CCNCC4)c(F)c3)nc21 [FRAX486] (max concentration tested 5000 nM)	9.15	3.36	0	0	47.6	11.5	-6.01
O=C(O)c1ccc(Nc2ncc3c(n2)-c2ccc(Cl)cc2C(c2c(F)cccc2F)=NC3)cc1 [MLN-8054] (max concentration tested 10000 nM)	6.25	3.57	6.64	0	60.3	36.4	46.6
Cc1cc(Nc2ncc(Cl)c(Nc3ccccc3S(=O)(=O)C(C)C)n2)c(OC(C)C)cc1C1CCNCC1 [Ceritinib] (max concentration tested 2500 nM)	1.13	10.6	8.09	0.17	30.9	64.5	82.3
CCN1CCN(Cc2ccc(Nc3ncc(F)c(-c4cc(F)c5nc(C)n(C(C)C)c5c4)n3)nc2)CC1 [Abemaciclib] (max concentration tested 2500 nM)	1.05	1.78	6.03	0.89	31.6	22	28.3
CCn1cc(-c2ccnc3[nH]c(-c4cccc(CN(C)C)c4)cc23)c(-c2ccc(NC(=O)N(C)C)cc2)n1 (max concentration tested 1000 nM)	4.77	4.28	10.8	0	54	46.2	33.4
NC(=O)N1CCC(CC(=O)N2CCC([C@H]3c4ncc(Br)cc4CCc4cc(Cl)cc(Br)c43)CC2)CC1 [Lonafarnib] (max concentration tested 10000 nM)	4.95	4.36	5.95	0	55.5	58	64.4
O=C(c1cccc(Cl)c1F)N1CCN(Cc2cccc(Nc3nccs3)n2)CC1 [MK-8745] (max concentration tested 2500 nM)	3.17	0.32	4.21	0.89	48.5	17.5	36.5
CC(C)CC(=O)Nc1n[nH]c2c1CN(C(=O)C1CCN(C)CC1)C2(C)C (max concentration tested 10000 nM)	10.2	11.5	11.8	2.57	101	83.7	99.8
COc1cc(N2CCN(C)CC2)ccc1Nc1nccc(-c2cn(C)c3cnccc23)n1 [AZ191] (max concentration tested 10000 nM)	5.07	5.3	3.96	1.42	95.6	80.5	76.4
COc1ccc(-c2nc(N3CCOCC3)c3sc(CN(C)c4ncc(C(=O)NO)cn4)cc3n2)cn1 [CUDC-907] (max concentration tested 10000 nM)	31.9	31.6	40.4	19.2	99.5	98.6	100
CCn1nnc2c(N3CCOCC3)nc(-c3ccc(NC(=O)Nc4ccc(C(=O)N5CCN(C)CC5)cc4)cc3)nc21 [PKI-402] (max concentration tested 2500 nM)	12.4	15.3	17.3	0.89	75.5	75.8	90.9
